US20250154163A1, “Pyrimidinone-Containing 17-Beta-Hydroxysteroid Dehydrogenase Type 13 Inhibitors” (ENANTA PHARMACEUTICALS, INC., priority 2023, published 2025)
pIC50: −log10 of the molar value.

How the values were obtained:
[1] = biological target: T1, human HSD17β13 (stable HEK293T cell line overexpressing human HSD17β13) (Homo sapiens, UniProt Q7Z5P4); test: HSD17β13 inhibitor cell-based screening assay (conversion of estradiol-d2 to estrone-d2 by RF-MS); settings: conversion of estradiol-d2 to estrone-d2 after 24 hours
T1 construct: expressed in transfected cells
T1 sequence (Q7Z5P4 20-300): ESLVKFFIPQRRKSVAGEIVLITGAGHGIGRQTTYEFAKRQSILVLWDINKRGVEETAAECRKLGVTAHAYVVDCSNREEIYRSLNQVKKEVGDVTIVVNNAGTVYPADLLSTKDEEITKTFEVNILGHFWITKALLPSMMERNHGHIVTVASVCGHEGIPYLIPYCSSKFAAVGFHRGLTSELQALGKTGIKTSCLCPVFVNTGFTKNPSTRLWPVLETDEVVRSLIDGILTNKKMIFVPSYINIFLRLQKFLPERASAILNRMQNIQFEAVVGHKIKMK
Method in brief: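 Cellular IC50 is based on 24-h conversion of estradiol-d2 (5 μM final) to estrone-d2, measured by RF-MS in acetonitrile-precipitated supernatants. Assay uses human HSD17β13-overexpressing HEK293T cells (7.5E3/well, 1% charcoal/dextran FBS MEM), with compounds dosed as a 9-point 1:3 series to 10 μM final. ATPlite luminescence on overexpressing and parent lines measured viability.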

[2] = tested on: human precision cut lung slices from a normal donor treated with fibrotic cocktail; test: Human precision cut lung slice (PCLS) culture, normal donor treated with fibrotic cocktail; type: cell-based; settings: normal donor PCLS treated 8 days with pro-fibrotic cocktail (FC); FIG. 2a, FIG. 3
Method: (§1) Human PCLS were generated from lung explants of patients with pulmonary fibrosis (donor ID #221028) or normal donor (donor ID #220730). Cryopreserved hPCLSs were obtained from Institute for In Vitro Sciences (IIVS) and maintained with air-liquid interface culture approach under 37° C., 5% CO2 and 95% humidity. hPCLS were cultured in DMEM-F12 (Invitrogen, Cat No. 11330032) containing 0.2% primocin (Invivogen, Cat No. ant-pm-1) and 1% insulin-transferrin-selenium (ITS-G; Invitrogen, Cat No. 41400045), after initial acclimation in acclimation media, including culture media supplemented with 1% antibiotic antimycotic solution (Invitrogen, Cat No. 15240062), 2 mM Hydrocortisone (Millipore Sigma,) and 5 mg/ml 2-phospho-L-abscorbic acid trisodium salt (Millipore Sigma, Cat No. 49752-10G) for 3 days. Slices of tissue were flatly grown in the tissue culture inserts with 0.4 μm pores of a 12-well plate (StemCell Technologies, Cat No. 1001027), supplemented with 100 μl culture media in the apical side containing PCLSs, and 900 μL culture media in the basal compartment. Media were changed every 48 hours. hPCLS were treated and randomly assigned in replicates of 6-8 per condition 7 days after recovery from cryopreservation. […] IPF donor PCLS were collected at day 8 for subsequent RNA isolation and gene expression quantification. […]

[3] = tested on: human precision cut lung slices from a donor with idiopathic pulmonary fibrosis; test: Human precision cut lung slice (PCLS) culture, donor with idiopathic pulmonary fibrosis; type: cell-based; settings: IPF donor PCLS; FIG. 2b
Method: as §1

pIC50 [1]	Structure (SMILES)	collagen (COL1A1) mRNA expression [2]	secreted fibronectin (lung fibronectin content) [3]
> 7.00	CS(=O)(=O)c1ccc(-c2nc3sc4c(O)c(Cl)ccc4c3c(=O)n2Cc2cnc(C(F)(F)F)nc2)c(C2CC2)c1 [Example 64, 7-chloro-2-(2-cyclopropyl-4-(methylsulfonyl)phenyl)-8-hydroxy-3-((2-(trifluoromethyl)pyrimidin-5-yl)methyl)benzo[4,5]thieno[2,3-d]pyrimidin-4(3H)-one]	decreased	
> 7.00	COc1ccc(-c2nc3sc4c(O)c(Cl)ccc4c3c(=O)n2Cc2cnco2)c(C2CC2)c1 [Example 26, 7-chloro-2-(2-cyclopropyl-4-methoxyphenyl)-8-hydroxy-3-(oxazol-5-ylmethyl)benzo[4,5]thieno[2,3-d]pyrimidin-4(3H)-one]	decreased	decreased
